As usually defined, the solubility is the dissolved amount per volume that the medium holds. In general, solubility (thermodynamic) refers to solubility found after equilibrating the solid with the medium. In general, melting point refers to the temperature of the solid-liquid transition.

The values below come from patent publication US9809609B2, “Water-soluble benzoazepine compound and its pharmaceutical composition” (OTSUKA PHARMACEUTICAL CO., LTD., priority 2005, dated 2017).

Series [1] is described as follows: Solubility of salt of compound (1) in water at 37° C. The format is physicochemical. The note with it: thermodynamic from solid, shaking at 37° C. for 30 minutes. The protocol: A suitable amount of test compound is added to a test tube, and 2.5 ml of water is added thereto. After shaking at 37° C. for 30 minutes, the mixture is filtered through a 0.45-μm membrane filter, and 0.5 ml of the filtrate is accurately weighed. Mobile phase is added thereto to make exactly 50 ml, preparing a test solution (dilution ratio: 100-fold). Approximately 5 mg of free-form authentic sample is accurately weighed, and acetonitrile is added thereto to make exactly 50 ml. A 2 ml of this liquid is accurately weighed, and mobile phase is added thereto to make exactly 20 ml, preparing a standard solution (equivalent to 10 μg/ml). By liquid chromatography under the following conditions, 20 μl of both the test solution and standard solution are tested to obtain the peak areas At and As of the test solution and standard solution. Concentration(μg/ml)=Ws/5×10×At/As×100=Ws×At/As×200 Ws: weighed amount of authentic sample (mg) Test Conditions • Detection: ultraviolet absorption photometer • (measurement wavelength: 254 nm) • Column: TOSOH TSKgel ODS-80Ts (0.46 cm×15 cm) • Column temperature: constant temperature of approximately 40° C. • Mobile phase: water/acetonitrile/trifluoroacetic acid=500/500/1 • Flow rate: 1 ml/min

Series [2] can be described thus: Solubility of tolvaptan in Britton-Robinson buffer and purified water. The conditions noted are these: thermodynamic from solid, shaken 4 hours. The format is physicochemical. The protocol: Tolvaptan was added in excess to Britton-Robinson buffer (pH 2, pH 7, or pH 12) or purified water, and then shaken at 25° C.±1° C. for 4 hours. Each solution was filtered through a filter, and then, using HPLC, the solubility of tolvaptan was quantified by absolute calibration.

The nature of series [3]: Serum concentration of tolvaptan in female rats after tail-vein administration of a compound (1b) solution. The note with it: dose producing 1 mg of tolvaptan per kg of body weight. The format is in vivo. The procedure:
A solution of compound (1b) (equivalent to 1 mg of tolvaptan per ml of solution) was prepared. [table] A 79 mg quantity of sodium dihydrogenphosphate•dihydrate and 5 g of mannitol were dissolved in about 90 ml of water for injection. A sodium hydroxide solution was added thereto, and a solution of pH 7 was prepared. Compound (1b) equivalent to 100 mg of tolvaptan was dissolved in this solution. A sodium hydroxide solution was added thereto, and the pH was adjusted to 7. […] This solution was rapidly administered to female rats via the tail vein at a dose such that 1 mg of tolvaptan is produced per kg of body weight. From time to time, blood was collected from the jugular vein under light ethyl ether anesthesia, and serum concentration of tolvaptan was determined by high-speed liquid chromatography (HPLC).

A short description of series [4]: Solubility of compound (1b) in buffer solution (room temperature). The format is physicochemical. The conditions noted are these: for Solubility of compound (1b): crystals could not be added in excess; for solubility thermodynamic at 16 days: thermodynamic from solid, shaken 16 days.

Converted amounts (≈) assume the structure as drawn. Marks after values point to notes of the source that are not given here.

For the compound `Cc1ccccc1C(=O)Nc1ccc(C(=O)N2CCCC(OP(=O)([O-])O)c3cc(Cl)ccc32)c(C)c1.[Na+]` (stereo not shown) [Example 8], the solubility at 30 min in series [1] is more than 1000 µg/mL.
As for `Cc1ccccc1C(=O)Nc1ccc(C(=O)N2CCCC(OP(=O)([O-])[O-])c3cc(Cl)ccc32)c(C)c1.[Mg+2]` (stereo not shown) [Example 7], in series [1], the solubility at 30 min is more than 1000 µg/mL.
Still for that read-out and setting: in the case of `Cc1ccccc1C(=O)Nc1ccc(C(=O)N2CCCC(OP(=O)([O-])O)c3cc(Cl)ccc32)c(C)c1.[K+]` (stereo not shown) [Example 11] it was more than 1000 µg/mL.
Take `Cc1ccccc1C(=O)Nc1ccc(C(=O)N2CCCC(O)c3cc(Cl)ccc32)c(C)c1` (stereo not shown) [tolvaptan, Tolvaptan]: the thermodynamic solubility at 4 h amounted to 0.2 µg/mL (≈ 0.000445 mM) in series [2] (aqueous buffer, Britton-Robinson buffer pH 2, 25° C.±1° C.); 0.3 µg/mL (≈ 0.000668 mM) in series [2] (aqueous buffer, Britton-Robinson buffer pH 7, 25° C.±1° C.); 0.2 µg/mL (≈ 0.000445 mM) in series [2] (aqueous buffer, Britton-Robinson buffer pH 12, 25° C.±1° C.); 0.2 µg/mL (≈ 0.000445 mM) in series [2] (purified water, 25° C.±1° C.).
In turn, `Cc1ccccc1C(=O)Nc1ccc(C(=O)N2CCCC(OP(=O)(O)O)c3cc(Cl)ccc32)c(C)c1` (stereo not shown) [compound (1b)] showed a melting point of 150 to 152 °C. The “Time at which tolvaptan was initially detected in serum after intravenous administration” value in series [3] (rapid tail-vein administration of compound (1b) solution) is on record as “five”. In addition, the “Hydrolysis of compound (1b) into tolvaptan in rats” value in series [3] (tail-vein administration) is listed as “rapidly hydrolyzed into tolvaptan”. Also, the solubility at 30 min in series [1] was more than 1000 µg/mL. Further, the “Solubility of compound (1b)” value in series [4] (Citric acid buffer (100 mM), pH before dissolution 8, pH after dissolution 4.2, room temperature) is recorded as “at least 8.3* w/v %”. The “Solubility of compound (1b)” value in series [4] (Sodium hydrogencarbonate buffer (100 mM), pH before dissolution 8, pH after dissolution 3.1, room temperature) is given as “at least 7.1* w/v %”. Moreover, in series [4] (Sodium phosphate buffer (100 mM), pH before dissolution 8, pH after dissolution 3.3, room temperature), the “Solubility of compound (1b)” value is on record as “at least 7.1* w/v %”. In series [4] (Sodium phosphate buffer (100 mM), pH before dissolution 9, pH after dissolution 3.3, room temperature), the “Solubility of compound (1b)” value is recorded as “at least 7.4* w/v %”. For the same compound, in series [4] (Sodium phosphate buffer (100 mM), pH before dissolution 10, pH after dissolution 3.4, room temperature), the “Solubility of compound (1b)” value is “at least 6.5* w/v %”. Further, in series [4] (Tris buffer (100 mM), pH before dissolution 9, pH after dissolution 3.4, room temperature), the “Solubility of compound (1b)” value is listed as “at least 6.3* w/v %”. This compound displayed a thermodynamic solubility at 16 days in series [4] (Tris/HCl buffer, pH 8, aqueous buffer, Tris buffer (100 mM), pH before dissolution 8, pH after dissolution 2.9, room temperature) of 7400 µg/mL (≈ 14 mM). Further, the thermodynamic solubility at 16 days in series [4] (pH 5, aqueous buffer, Sodium phosphate buffer (100 mM), pH before dissolution 5, pH after dissolution 3.0, room temperature) stood at 5800 µg/mL (≈ 11 mM). The same compound gave a thermodynamic solubility at 16 days in series [4] (pH 6, aqueous buffer, Sodium phosphate buffer (100 mM), pH before dissolution 6, pH after dissolution 3.0, room temperature) of 13100 µg/mL (≈ 24.8 mM). This compound came in with a thermodynamic solubility at 16 days in series [4] (pH 7, aqueous buffer, Sodium phosphate buffer (100 mM), pH before dissolution 7, pH after dissolution 3.1, room temperature) of 7600 µg/mL (≈ 14.4 mM).
On to `COP(=O)(NCCO)OC1CCCN(C(=O)c2ccc(NC(=O)c3ccccc3C)cc2C)c2ccc(Cl)cc21` (stereo not shown) [Example 20], for which the solubility at 30 min in series [1] was more than 1000 µg/mL.
